Measurements taken from patent US10760050B2, “Method for producing retinal pigment epithelial cells” (SUMITOMO CHEMICAL COMPANY, LIMITED, priority 2013, dated 2020).

Test system: Human ES cells (KhES-1-derived)
Assay: Adhesion culture of cells dispersed from human ES cell-derived aggregates with added factors; level of epithelial formation observed under a microscope (Example 5)
Format: cell-based
Conditions: observed at day 40, compared to the control free of the addition
Procedure: Human ES cells (KhES-1-derived) were cultured according to the methods described in “Ueno, M. et al. PNAS 2006, 103(25), 9554-9559” and “Watanabe, K. et al. Nat Biotech 2007, 25, 681-686”. As the medium, a medium obtained by adding 20% KSR KNOCKOUT™ Serum Replacement; Invitrogen), 0.1 mM 2-mercaptoethanol, 2 mM L-glutamine, 1× non-essential amino acid, 5 ng/ml bFGF to DMEM/F12 medium (Sigma) was used. The cultured ES cells were dispersed into single cells using TrypLE Express (Invitrogen), and the above-mentioned cultured ES cells were suspended in 100 μl of a serum-free medium at 1.2×10^4 cells per one well of a non-cell adhesive 96 well culture plate (sumilon spheroid plates, SUMITOMO BAKELITE Co., Ltd.) to allow for rapid formation of aggregates and subjected to culture at 37° C., 5% CO2. As the serum-free medium therefor, a serum-free medium obtained by adding 10% KSR, 450 μM 1-monothioglycerol, 1× Chemically defined lipid concentrate, 20 μM Y27632 to a 1:1 mixture of F-12 medium and IMDM medium was used. At day 3 from the start of the floating culture, BMP4 was added al a concentration 1.5 nM, and floating culture was continued. A half amount of the culture medium in the well was exchanged every 3 days with the above-mentioned medium not supplemented with a substance acting on the BMP signal transduction pathway. […]

Molecule	level of epithelial formation (pigmentation of retinal pigment epithelial cells) (3 μM added at day 24 from the start of the floating culture, FIG. 5B)	level of epithelial formation (uniformity of epithelium) (1 nM added at day 24, FIG. 5E)
Cc1c[nH]c(-c2cnc(NCCNc3ccc(C#N)cn3)nc2-c2ccc(Cl)cc2Cl)n1 [CHIR99021]	differentiated into darker retinal pigment epithelial cells	–
recombinant human BMP4 protein: BMP protein, a substance acting on the BMP signal transduction pathway (protein, UniProt P12644 293-408, looked up) Bone morphogenetic protein 4: SPKHHSQRARKKNKNCRRHSLYVDFSDVGWNDWIVAPPGYQAFYCHGDCPFPLADHLNSTNHAIVQTLVNSVNSSIPKACCVPTELSAISMLYLDEYDKVVLKNYQEMVVEGCGCR	–	more uniform epithelium
